# Test results taken from ChEMBL document CHEMBL2429770, “Development of Mycobacterium tuberculosis whole cell screening hits as potential antituberculosis agents” (J Med Chem, 2013).
# pKi: −log10 of the molar value.
# System: Mycobacterium tuberculosis
# Assay: Antimycobacterial activity against Mycobacterium tuberculosis H37Rv
# Assay type: functional
row,Structure (SMILES),MIC
1,Cc1sc(N)nc1C(=O)O,0.06 µg/mL
2,COC(=O)c1nc(N)sc1Cc1ccccc1,0.06 µg/mL
3,Cc1ccc2nc(C)c(C(=O)NCc3cccs3)n2c1,0.19 µM
4,COc1ccc2nc(C)cc(OCC(=O)Nc3ccccc3OC)c2c1,0.7 µM
5,c1cc2c(s1)CCOC21CCN(Cc2ccc3c(c2)OCCO3)CC1,0.38 µM
6,O=C(NC12CC3CC(CC(C3)C1)C2)c1cc2cc(Cl)ccc2[nH]1,0.47 µM
7,CCc1ccc([C@@H]2C[C@H](C(F)(F)F)n3ncc(C(=O)NCc4ccc(OC)cc4)c3N2)cc1,0.25 µM
8,Cc1cccc(-c2nc(Nc3ccncn3)c3c(C)csc3n2)n1,0.76 µM
9,CCCCCCCCCCN1CCCC(O/N=C2\[C@H](C)C[C@@](C)(OC)[C@H](O[C@@H]3O[C@H](C)C[C@H](N(C)C)[C@H]3O)[C@@H](C)C(=O)[C@@H](C)C(=O)O[C@H](CC)[C@@](C)(O)[C@H](O)[C@H]2C)C1 (some centres not stated),0.125 µM
10,COc1ccc(CCNc2cc(-c3ccccc3)nc3ncnn23)cc1,0.94 µM

# Target: not listed separately
# Assay: Inhibition of Mycobacterium tuberculosis PtpB
row,Structure (SMILES),pKi
1,O=C(O)c1cc(-c2ccc(-c3ccc(F)c(C(F)(F)F)c3)cc2C2CCCCC2)on1,6.66
2,O=P(O)(O)C(F)(F)c1ccc(-c2ccc(F)c(C(F)(F)F)c2)cc1C1CCCCC1,6.16
